Among the data in patent US11384381B2, “Reaction accelerating agent” (Kikkoman Corporation, priority 2016, dated 2022) are ΔA9 min and ΔA10 min values, retold here.

Assay [1] has as its system cholesterol oxidase (CHO-CE). The assay is described as follows: Cholesterol detection reaction completed with excess cholesterol oxidase (Example 12). In kind it is biochemical. The settings on record: 0.04% (w/v) compound, 11.6 U/ml CHO-CE (excess), 32 μM cholesterol, pH 7.0, 37° C.; for ΔA9 min: change in A694-A751 9 minutes after mixing; for ΔA10 min: change in A694-A751 10 minutes after mixing, defined as ΔA100%. Here is the method: In this Example the amount of change in absorbance is determined when the detection reaction for the substrate cholesterol was completed using an excess amount of cholesterol oxidase (CHO-CE), which is an oxidase.
A reagent for cholesterol measurement having the following composition was prepared, and the measurement of cholesterol using cholesterol oxidase was carried out using Bio Majesty JCA-BM 1650 (manufactured by JEOL Ltd.).
32 μM cholesterol (manufactured by Wako Pure Chemical Industries, Ltd.)
5.0% (v/v) Triton X-100 (manufactured by Wako Pure Chemical Industries, Ltd.)
4.0% (w/v) sodium cholate (manufactured by Wako Pure Chemical Industries, Ltd.)
30 mM MOPS-NaOH buffer solution, pH 7.0
(§1) 10 U/ml peroxidase PEO-301 (Toyobo Co., Ltd.)
(§2) 0.023 mM 10-(carboxymethylaminocarbonyl)-3,7-bis(dimethylamino)phenothiazine sodium (DA-67, manufactured by Wako Pure Chemical Industries, Ltd.)
(§3) 0.04% (w/v) of the compound of Comparative Example 2, any one compound of the present invention, or compound-free (Comparative Example 1) ion-exchange water as shown in Table 1
10 mM MOPS-NaOH buffer solution, pH 7.0
11.6 U/ml CHO-CE (manufactured by Kikkoman Biochemifa Company)
8 μl of the sample was added to 96 μl of the first reagent-E, and the mixture was incubated at 37° C. for 5 minutes. Then, 24 μl of the second reagent-I was added thereto, and the quantitative reaction of hydrogen peroxide resulting from the oxidation of cholesterol was allowed to progress at 37° C. for 5 minutes. The absorbance (A694 and A751) of the reaction solution for light at wavelengths of 694 nm and 751 nm was measured over time for 10 minutes after the mixing of the sample with the first reagent-E to determine the value of subtraction of A751 from A694, i.e., the value A694/751. Subsequently, ΔA was calculated by subtracting, from A694/751, the value of (104/128) times A694/751 4.8 minutes after the mixing of the sample with the first reagent-E. Incidentally, 4.8 minutes after the mixing of the sample with the first reagent-E represents the time immediately before the addition of the second reagent-I. ΔA 9 minutes and 10 minutes after the mixing of the diluted sample with the first reagent-E (ΔA9min and ΔA10min) are shown in Table 9.
In other words, it can be recognized that the quantitative reaction of cholesterol, i.e., the quantitative reaction of hydrogen peroxide resulting from the oxidation of cholesterol, was completed in 10 minutes after the mixing of the diluted sample with the first reagent-E. Accordingly, in Examples 12 and 13, ΔA10min in each Comparative Example or the present invention was defined as ΔA when 100% of the quantitative reaction of cholesterol progressed under each condition (ΔA100%).

Assay [2] concerns sarcosine oxidase (SOD-TE). The assay is described as follows: Sarcosine detection reaction completed with excess sarcosine oxidase (Example 10). The settings on record: 0.04% (w/v) compound, 123 U/ml SOD-TE (excess), 32 μM sarcosine, pH 8.0, 37° C.; for ΔA9 min: change in A694-A751 9 minutes after mixing; for ΔA10 min: change in A694-A751 10 minutes after mixing, defined as ΔA100%. In kind it is biochemical. As for the experimental part: In this Example, the amount of change in absorbance is determined when the detection reaction of the substrate sarcosine (N-methylglycine) was completed using an excess amount of sarcosine oxidase (SOD-TE), which is an oxidase.
A reagent for sarcosine measurement having the following composition was prepared, and the measurement of sarcosine using sarcosine oxidase was carried out using Bio Majesty JCA-BM 1650 (manufactured by JEOL Ltd.).
32 μM sarcosine (manufactured by Wako Pure Chemical Industries, Ltd.)
30 mM MOPS-NaOH buffer solution, pH 8.0
0.2% (v/v) NP-10 (manufactured by HELM)
as §1, §2, §3
10 mM MOPS-NaOH buffer solution, pH 8.0
123 U/ml SOD-TE (manufactured by Kikkoman Biochemifa Company)
8 μl of the sample was added to 96 μl of the first reagent-D, and the mixture was incubated at 37° C. for 5 minutes. Then, 24 μl of the second reagent-G was added thereto, and the quantitative reaction of hydrogen peroxide resulting from the oxidation of sarcosine was allowed to progress at 37° C. for 5 minutes. The absorbance (A694 and A751) of the reaction solution for light at wavelengths of 694 nm and 751 nm was measured over time for 10 minutes after the mixing of the sample with the first reagent-D to determine the value of subtraction of A751 from A694, i.e., the value A694/751. Subsequently, ΔA was calculated by subtracting, from A694/751, the value of (104/128) times […] 4.8 minutes after the mixing of the sample with the first reagent-D. Incidentally, 4.8 minutes after the mixing of the sample with the first reagent-D represents the time immediately before the addition of the second reagent-G. ΔA 9 minutes and 10 minutes after the mixing of the diluted sample with the first reagent-D (ΔA9min and ΔA10min) are shown in Table 7.
In other words, it can be recognized that the quantitative reaction of sarcosine, i.e., the quantitative reaction of hydrogen peroxide resulting from the oxidation of sarcosine, was completed in 10 minutes after the mixing of the diluted sample with the first reagent-D. Accordingly, in Examples 10 and 11, ΔA10min in each Comparative Example or the present invention was defined as ΔA when 100% of the quantitative reaction of sarcosine progressed under each condition (ΔA100%).

Turning to `Cc1nn(-c2cc(S(=O)(=O)[O-])ccc2Cl)c(O)c1N=Nc1ccccc1.[Na+]` [Acid Yellow 34], in assay [1], the ΔA9 min was 0.033 and the ΔA10 min was 0.033.

`O=S(=O)([O-])c1cccc(N=Nc2ccc(Nc3ccccc3)cc2)c1.[Na+]` [Acid Yellow 36]: in assay [1], the ΔA9 min turned out to be 0.033 and the ΔA10 min turned out to be 0.033.

On to `O=C([O-])c1cc(N=Nc2cccc([N+](=O)[O-])c2)ccc1O.[Na+]` [Alizarin Yellow GG], for which, in assay [1], the ΔA9 min came to 0.039 and the ΔA10 min is 0.039. In addition, in assay [2], the ΔA9 min was found to be 0.197 and the ΔA10 min was 0.197.

With `O=C(O)c1cc(N=Nc2ccc3cc(S(=O)(=O)O)ccc3c2)ccc1O.[Na]` [Chrome Yellow], the ΔA9 min was determined as 0.071 in assay [1] and 0.186 in assay [2]. Moreover, the ΔA10 min in assay [1] came out at 0.072; in assay [2], 0.186.

Consider `COc1cc(N=Nc2cccc(S(=O)(=O)[O-])c2)ccc1NC(=O)Nc1ccc(N=Nc2ccc(O)c(C(=O)[O-])c2)cc1.[Na+].[Na+]` [Direct Yellow 44], for which, in assay [2], the ΔA9 min worked out at 0.315 and the ΔA10 min turned out to be 0.315.

On to `COc1cc(N=Nc2ccc(N)cc2)c(C)cc1N` [Disperse Diazo Black 3BF], for which, in assay [1], the ΔA9 min is 0.028 and the ΔA10 min is on record as 0.032. In assay [2], this compound gave a ΔA9 min of 0.156 and a ΔA10 min of 0.156.

For the compound `O=C([O-])c1cc(N=Nc2ccc([N+](=O)[O-])cc2)ccc1O.[Na+]` [Mordant Orange 1], the ΔA9 min in assay [1] was determined as 0.041; in assay [2], 0.327. In addition, the ΔA10 min is reported as 0.041 in assay [1] and 0.328 in assay [2].

Regarding Acid Red 151, in assay [1], the ΔA9 min stood at 0.036 and the ΔA10 min is on record as 0.036. Further, in assay [2], the ΔA9 min worked out at 0.212 and the ΔA10 min came out at 0.212.

Xylene Fast Yellow 2G: in assay [2], the ΔA9 min is on record as 0.158 and the ΔA10 min was 0.158.
